pIC50: −log10 of the molar value.
Columns and labels:
A2058 = assay: CellTiter-Glow Luminescent Cell Viability assay, A2058 (melanoma); type: cell-based; settings: Homo sapiens, 72 h, absolute IC50 (T/C=50%), read-out: IC50 against A2058
Protocol: (§1) Antitumor activity of the compounds and doxorubicin as a positive control was assessed by using the CellTiter-Glow® Luminescent Cell Viability assay (Promega #G7572) according to the manufacturer's instructions. The compounds were tested at 5 or 6 concentrations in half-log increments (highest concentration 30 μM or 100 μM) in duplicate or triplicate well conditions.
(§2) Tumor cells were grown at 37° C. in a humidified atmosphere with 5% CO2 in RPMI 1640 or DMEM medium, supplemented with 10% (v/v) fetal calf serum and 50 μg/ml gentamicin for up to 20 passages, and were passaged once or twice weekly. Cells were harvested using TrypLE or PBS buffer containing 1 mM EDTA, and the percentage of viable cells was determined using a CASY Model TI cell counter (OMNI Life Science). Cells were harvested from exponential phase cultures, counted and plated in 96 well flat-bottom microtiter plates at a cell density depending on the cell line's growth rate (4,000-20,000 cells/well depending on the cell line's growth rate, up to 60,000 for hematological cancer cell lines) in RPMI 1640 or DMEM medium supplemented with 10% (v/v) fetal calf serum and 50 μg/ml gentamicin (140 μl/well). […] Viability of cells was quantified by or CellTiter-Glow® Luminescent Cell Viability assay (Promega #G7572). Luminescence was measured with a microplate luminometer (Promega or PerkinElmer. […]

MDA-MB-468 = assay: CellTiter-Glow Luminescent Cell Viability assay, MDA-MB-468 (breast); type: cell-based; settings: Homo sapiens, 72 h, absolute IC50 (T/C=50%), read-out: IC50 against MDA-MB-468
Protocol: as §1, §2

U937 = assay: CellTiter-Glow Luminescent Cell Viability assay, U937 (lymphoma); type: cell-based; settings: Homo sapiens, U-937, 72 h, absolute IC50 (T/C=50%), read-out: IC50 against U937
Protocol: as §1, §2

A375 = assay: CellTiter-Glow Luminescent Cell Viability assay, A375 (melanoma); type: cell-based; settings: Homo sapiens, A-375, 72 h, absolute IC50 (T/C=50%), read-out: IC50 against A375
Protocol: as §1, §2

Farage = assay: CellTiter-Glow Luminescent Cell Viability assay, Farage (lymphoma); type: cell-based; settings: 72 h, absolute IC50 (T/C=50%), read-out: IC50 against Farage
Protocol: as §1, §2

SK-Mel-5 = assay: CellTiter-Glow Luminescent Cell Viability assay, SK-Mel-5 (melanoma); type: cell-based; settings: Homo sapiens, 72 h, absolute IC50 (T/C=50%), read-out: IC50 against SK-Mel-5
Protocol: as §1, §2

[1] = test system: breast and colon carcinomas, lymphoma and melanoma cancer cell growth; assay: CellTiter-Glow cell viability assay, cancer cell line panel (summary statement); type: cell-based; settings: lymphoma and melanoma cell lines of Table 2, read-out: IC50s, cancer cell growth inhibition
Protocol: as §1, §2

KM12 = assay: CellTiter-Glow Luminescent Cell Viability assay, KM12 (colon); type: cell-based; settings: Homo sapiens, 72 h, absolute IC50 (T/C=50%), read-out: IC50 against KM12
Protocol: as §1, §2

[2] = In vivo tolerability, maximum tolerated dose in nude mice
Protocol: To assess the toxicity of the test compounds in vivo and to determine the maximum tolerated dose 4 BALB/c Nude male mice, 4-9 weeks old were injected intraperitoneally (i.p) with various doses of the drug or vehicle 2.5% DMSO/5% EtOH/20% PEG200 in saline. The volume of the injection was 5 ml/kg. The administered doses were confirmed by LC-UV or LC-MS/MS.
Mice were monitored for body weight before each injection and twice a day for clinical signs of toxicity.
All procedures related to animal handling, care and the treatment in the study were performed according to the guidelines of the Association for Assessment and Accreditation of Laboratory Animal Care (AAALAC).
In order to assess the in vivo toxicity of SND350 various doses of the drug were administered either as a single dose or repeat doses into nude mice.

SMILES: COc1c(O)cc(O)c2c(=O)cc(-c3ccc(CCCCC[P+](c4ccccc4)(c4ccccc4)c4ccccc4)cc3)oc12.[Br-] [SND350, (5-(4-(5,7-dihydroxy-8-methoxy-4-oxo-4H-chromen-2-yl)phenyl)pentyl)triphenylphosphonium bromide]
- pIC50 (A2058): 5.19
- pIC50 (MDA-MB-468): 5.55
- pIC50 (U937): 5.54
- pIC50 (A375): 5.05
- pIC50 (Farage): 6.10
- pIC50 (SK-Mel-5): 5.68
- pIC50 [1]: > 5.00
- pIC50 (KM12): 5.55
- tolerability of multiple administrations ([2]; i.p., qod for a total of 7 injections, 10 mg/kg/inj): well tolerated
- MTD ([2]; male, BALB/c Nude, mouse, in vivo, ip, single i.p. administration): 40 mg/kg
